Tests used:
HCV NS3 serine protease = HCV NS3 serine protease (Hepatitis C virus genotype 1a, UniProt P27958); settings: as described in WO2005/015579; cited from earlier work
CYP3A4/5 = assay: Clinical study: effect of boceprevir on the pharmacokinetic profile of midazolam in healthy adult subjects; settings: for AUC(0-t) / Cmax / Tmax: both, human, in vivo, 4 mg; for Tmax: MDZ Tmax
Procedure: A clinical study was conducted to determine the effects of boceprevir on the pharmacokinetic (PK) profile of midazolam (MDZ) to assess the ability of boceprevir to inhibit CYP3A4/5 in vivo by monitoring its effect on the metabolism of MDZ, a sensitive CYP3A4/5 substrate.
This study was conducted in healthy adult subjects (seven male and five female subjects), at a single center, in conformance with Good Clinical Practices. The study used a fixed-sequence design ([…]). The PK profile of MDZ and its metabolite (1-hydroxy midazolam [1-0H-MDZ)) was determined when MDZ was administered alone and compared with the PK profile after co-administration of boceprevir as well as following a washout period of 7 days after boceprevir administration.
Boceprevir (BOC) 800 mg was administered as 4×200 mg capsules. MDZ 4 mg was administered as a single dose of an oral solution.
Day 1: MDZ 4 mg (oral solution, single dose)
Days 1 to 5: Boceprevir 800 mg (4×200 mg capsules) TID
Day 6: MDZ 4 mg (oral solution, single dose) and boceprevir 800 mg (4×200 mg capsules) TID Days 8 and 13: MDZ 4 mg (oral solution, single dose)
Blood samples for PK analyses were collected: for MDZ and 1-0H-MDZ: Days −1, 6, 8, and 13: predose (Ohr) and at 0.5, 1, 2, 3, 4, 8, 12, and 24 hours postdose for boceprevir: predose (Ohr) on Day 4 and Day 5 and on Day 6: predose (Ohr), and at 0.5, 1, 2, 3, 4, 6, and 8 hr postdose. The 8 hour sample was to be collected prior to the administration of the next dose of Boceprevir.

HCV NS3 serine protease, sequence (P27958 1658-1711): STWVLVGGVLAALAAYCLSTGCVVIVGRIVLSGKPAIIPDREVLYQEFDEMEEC
HCV NS3 serine protease, sequence (P27958 1027-1657): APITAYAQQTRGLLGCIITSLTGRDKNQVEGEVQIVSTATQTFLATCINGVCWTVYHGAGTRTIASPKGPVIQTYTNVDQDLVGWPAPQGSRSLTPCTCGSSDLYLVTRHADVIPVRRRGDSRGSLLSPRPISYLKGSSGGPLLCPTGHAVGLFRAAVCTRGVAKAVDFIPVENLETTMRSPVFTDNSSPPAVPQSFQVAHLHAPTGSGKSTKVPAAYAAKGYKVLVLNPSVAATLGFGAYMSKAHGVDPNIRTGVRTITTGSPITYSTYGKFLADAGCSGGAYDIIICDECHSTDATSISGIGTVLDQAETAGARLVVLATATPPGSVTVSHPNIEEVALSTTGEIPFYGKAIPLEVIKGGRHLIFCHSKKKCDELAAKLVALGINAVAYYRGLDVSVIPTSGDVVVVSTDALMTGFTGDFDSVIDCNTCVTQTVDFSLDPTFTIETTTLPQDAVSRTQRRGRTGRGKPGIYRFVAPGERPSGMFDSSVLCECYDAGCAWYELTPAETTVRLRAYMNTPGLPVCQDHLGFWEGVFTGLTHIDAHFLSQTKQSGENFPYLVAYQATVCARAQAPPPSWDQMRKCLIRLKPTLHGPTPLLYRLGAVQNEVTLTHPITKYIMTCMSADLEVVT

SMILES | in vitro HCV NS3 serine protease inhibitory activity compared with the compound of Formula 1c (HCV NS3 serine protease) | Plasma concentrations of MDZ, return to baseline after boceprevir (CYP3A4/5; 48 hours post last administration of boceprevir) | AUC(0-t) (CYP3A4/5; MDZ AUC (0-24 hr) LS Mean, MDZ Alone (Day 8)) | AUC(0-t) (CYP3A4/5; MDZ AUC (0-24 hr) LS Mean, MDZ Alone (Day 13)) | AUC(0-t) (CYP3A4/5; MDZ AUC (0-24 hr) LS Mean, MDZ Alone (Day-1)) | AUC(0-t) (CYP3A4/5; MDZ AUC(0-24 hr), MDZ Alone (Day 8), after boceprevir) | AUC(0-t) (CYP3A4/5; MDZ AUC(0-24 hr), MDZ Alone (Day 13), after boceprevir) | Cmax (CYP3A4/5; MDZ Cmax LS Mean, MDZ Alone (Day 8)) | Cmax (CYP3A4/5; MDZ Cmax LS Mean, MDZ Alone (Day 13)) | Cmax (CYP3A4/5; MDZ Cmax LS Mean, MDZ Alone (Day-1)) | Cmax (CYP3A4/5; MDZ Cmax, MDZ Alone (Day 8), after boceprevir) | Cmax (CYP3A4/5; MDZ Cmax, MDZ Alone (Day 13), after boceprevir) | Tmax (CYP3A4/5; MDZ Alone (Day 8), after boceprevir) | Tmax (CYP3A4/5; MDZ Alone (Day 13), after boceprevir) | AUC(0-t) (CYP3A4/5; po, MDZ AUC(0-24 hr), MDZ Alone (Day-1), MDZ 4 mg oral, n = 12) | Cmax (CYP3A4/5; po, MDZ Cmax, MDZ Alone (Day-1), MDZ 4 mg oral, n = 12) | Tmax (CYP3A4/5; po, MDZ Alone (Day-1), MDZ 4 mg oral, n = 12)
CC(C)(C)NC(=O)N[C@H](C(=O)N1C[C@H]2[C@@H]([C@H]1C(=O)N[C@@H](CC1CCC1)C(=O)C(N)=O)C2(C)C)C(C)(C)C [Formula 1b, (1R,2S,5S)—N-[(1S)-3-amino-1-(cyclobutylmethyl)-2,3-dioxopropyl]-3-[(2S)-2[[[(1,1-dimethylethyl)amino]carbonyl]amino]-3,3-dimethyl-1-oxobutyl]-6,6-dimethyl-3-azabicyclo[3.1.0]hexane-2-carboxamide] | significantly higher |  |  |  |  |  |  |  |  |  |  |  |  |  |  |  | 
Cc1ncc2n1-c1ccc(Cl)cc1C(c1ccccc1F)=NC2 [MDZ, midazolam] |  | returned to baseline values by Day 8 | 56.1 ng·h/mL | 43.8 ng·h/mL | 52.9 ng·h/mL | 59.2 ng·h/mL | 45.4 ng·h/mL | 9.82 ng/mL | 8.94 ng/mL | 9.96 ng/mL | 10.3 ng/mL | 9.15 ng/mL | 2 h | 1 h | 56.4 ng·h/mL | 10.3 ng/mL | 2 h

— patent publication US20140162942A1, “INHIBITION OF CYP3A DRUG METABOLISM” (priority 2010, published 2014)
